Measurements: US20240293345A1, “COMBINATIONS OF LOCAL ANESTHETICS FOR IMPROVED PAIN RELIEF” (priority 2021, published 2024)

Key:
[1] = given subcutaneously; cited from earlier work
[2] = local anesthesia or nerve blocks; cited from earlier work
[3] = Local anesthesia for a dislocated shoulder (incident described by patient 192293); assay type: in vivo, human; conditions: three attempts of administration, patient's own account
[4] = Case studies: local anesthesia by injection to the mouth region before dental procedures; assay type: in vivo, human; conditions: for anesthetic effect of one local anesthetic alone: cases previously observed by the inventors; for local anesthetic effect / pain relief during dental procedures: patients with a history of poor pain relief after just one local anesthetic, injection to mouth region
From the text: The experiments and disclosures provided herein are based on 9 case studies performed on patients that had, or previously has had phenotype red hair. The inventors performed odontological procedures on the patients and compared pain relief to prior experiences with local anesthetics.
9 patients with a history of poor pain relief after administration of just one local anesthetic received a combination of lidocaine and prilocaine before various dental procedures where performed. The patients pain sensation was the noted in case studies kept at the inventor's clinic.
Commercially available Xylocain Dental Adrenaline (lidocaine HCL 20 mg/mL with epinephrine 12.5 μg/mL) and Citanest Dental Octopressin (prilocaine HCL 30 mg/mL and felypressin 0.54 μg/mL) was administered by injection to mouth region of the patient for pain relief. Both Xylocain Dental Adrenaline and Citanest Dental Octopressin was provided in cartridges containing 1.8 mL of solution comprising active ingredients in said concentrations.

[5] = in vivo; cited from earlier work

Row | Structure (SMILES) | anesthetic effects in redheads [1] | onset of effect [2] | pain relief [3] | anesthetic effect of one local anesthetic alone [4] | local anesthetic effect / pain relief during dental procedures [4] | local anesthetic effect / pain relief during dental procedures ([4]; listed as Lidocaine) | metabolism and excretion [5]
1 | CCN(CC)CC(=O)Nc1c(C)cccc1C [lidocaine] | resistant to the anesthetic effects | within several minutes | without obtaining adequate pain relief | did not provide adequate anesthetic effect | Poor effect | not effective | 
2 | CCN(CC)CCOC(=O)c1ccc(N)cc1 [novocaine] | resistant to the anesthetic effects |  |  |  |  |  | 
3 | CCCNC(C)C(=O)Nc1ccccc1C (stereo not drawn) [prilocaine] |  |  |  | did not provide adequate anesthetic effect |  |  | rapidly metabolized by the liver and excreted in the urine as o-toluidine
